Experimental data published in PubChem BioAssay AID248 (DTP/NCI, 2004).
Values joined by “and” are separate entries in the source; they are usually repeats but may differ in a detail not shown here. Identical values can stand only once. Inconclusive results and toxic doses are left out. Rule as the data show it: active = T/C of 150% or more; inactive = T/C below 125%.

Test system: L1210 leukemia ip in BDF1 mice, survival T/C
Test: NCI In Vivo Anticancer Drug Screen. Data for tumor model L1210 Leukemia (intraperitoneal) in B6D2F1 (BDF1) mice
Conditions: endpoint: mean survival time, higher = longer survival
In short: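 Tumor was transplanted into mice, which were then dosed with test compound or vehicle alone. Survival was recorded for each group, and the treated figure was expressed relative to the control figure.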

[1] = dose: 12.5 mg/kg/injection, schedule: Q01DX009 (ip), vehicle: saline
[2] = dose: 25.0 mg/kg/injection, schedule: Q01DX009 (ip), vehicle: saline
[3] = dose: 50.0 mg/kg/injection, schedule: Q01DX001 (ip), vehicle: saline
[4] = dose: 100.0 mg/kg/injection, schedule: Q01DX001 (ip), vehicle: saline
[5] = dose: 200.0 mg/kg/injection, schedule: Q01DX001 (ip), vehicle: saline
[6] = dose: 400.0 mg/kg/injection, schedule: Q01DX001 (ip), vehicle: saline

Measured: T/C

COc1ccc(/C=C/C=C/C(=O)O)cc1OC
inactive: dose: 50.0 mg/kg/injection, schedule: Q01DX001 (ip), vehicle: other 102 % of control | dose: 100.0 mg/kg/injection, schedule: Q01DX001 (ip), vehicle: other 98 % of control | dose: 200.0 mg/kg/injection, schedule: Q01DX001 (ip), vehicle: other 107 % of control | dose: 400.0 mg/kg/injection, schedule: Q01DX001 (ip), vehicle: other 91 % of control

O=C(CC1(Cl)C(F)(F)C(F)(F)C1(F)F)c1ccccc1
inactive: dose: 6.25 mg/kg/injection, schedule: Q01DX009 (ip), vehicle: saline 94 % of control | [1] 94 % of control | dose: 25.0 mg/kg/injection, schedule: Q01DX009 (ip), vehicle: saline with Tween-80 94 % of control | [2] 100 % of control

CCCCCC(O)C1C(=O)OC(C)C(O)/C=C/C=C/C=C/C=C/C=C(\C)C(O)C(O)C(O)CC(O)CC(O)CC(O)CC(O)CC1O (stereo not drawn)
inactive: dose: 0.5 mg/kg/injection, schedule: Q01DX001 (ip), vehicle: saline 97 % of control | dose: 1.0 mg/kg/injection, schedule: Q01DX001 (ip), vehicle: saline 97 % of control | dose: 2.0 mg/kg/injection, schedule: Q01DX001 (ip), vehicle: saline 95 % of control | dose: 4.0 mg/kg/injection, schedule: Q01DX001 (ip), vehicle: saline 92 % of control | dose: 8.0 mg/kg/injection, schedule: Q01DX001 (ip), vehicle: saline 97 % of control

O=C(NC(CSC(c1ccc(Cl)cc1)c1ccc(Cl)cc1)C(=O)O)OCc1ccccc1 (stereo not drawn)
inactive: dose: 25.0 mg/kg/injection, schedule: Q04DX003 (ip), vehicle: Klucel (hydroxypropylcellulose) (HPC) 102 % of control | dose: 50.0 mg/kg/injection, schedule: Q04DX003 (ip), vehicle: Klucel (hydroxypropylcellulose) (HPC) 91 % of control | dose: 100.0 mg/kg/injection, schedule: Q04DX003 (ip), vehicle: Klucel (hydroxypropylcellulose) (HPC) 97 % of control

COc1ccc(Cc2ccc(OC)cc2)cc1
inactive: [3] 96 % of control | [4] 96 % of control | [5] 96 % of control | [6] 90 % of control

COc1cc(CN)cc(OC)c1OC
inactive: [3] 100 % of control | [4] 96 % of control | [5] 96 % of control | [6] 100 % of control

C1OC2CC3CC1C2C3 (stereo not drawn)
inactive: dose: 10.0 mg/kg/injection, schedule: Q01DX001 (ip), vehicle: acetone 107 % of control | dose: 20.0 mg/kg/injection, schedule: Q01DX001 (ip), vehicle: acetone 104 % of control | dose: 40.0 mg/kg/injection, schedule: Q01DX001 (ip), vehicle: acetone 98 % of control

CCc1c(O)c2c(c(O)c1C(C)=O)C(=O)c1c(cc(O)c(C(=O)O)c1C(=O)O)C2=O
inactive: dose: 100.0 mg/kg/injection, schedule: Q04DX003 (ip), vehicle: saline with Tween-80 100 % of control | dose: 200.0 mg/kg/injection, schedule: Q04DX003 (ip), vehicle: saline with Tween-80 100 % of control

CC1=C(C)C(=O)c2c(OC(=O)c3ccccc3)ccc(OC(=O)c3ccccc3)c2C1=O
inactive: [1] 100 % of control | [2] 99 % of control | dose: 50.0 mg/kg/injection, schedule: Q01DX009 (ip), vehicle: saline 92 % of control | dose: 50.0 mg/kg/injection, schedule: Q04DX003 (ip), vehicle: saline 95 % of control | dose: 100.0 mg/kg/injection, schedule: Q01DX009 (ip), vehicle: saline 92 % of control | dose: 100.0 mg/kg/injection, schedule: Q04DX003 (ip), vehicle: saline 98 % of control and 91 % of control | dose: 200.0 mg/kg/injection, schedule: Q01DX009 (ip), vehicle: saline 87 % of control | dose: 200.0 mg/kg/injection, schedule: Q04DX003 (ip), vehicle: saline 90 % of control | dose: 400.0 mg/kg/injection, schedule: Q04DX003 (ip), vehicle: saline 92 % of control and 91 % of control
